Data published in article PMC7470127, “Design, synthesis, and evaluation of 1, 4-benzodioxan-substituted chalcones as selective and reversible inhibitors of human monoamine oxidase B” (Journal of Enzyme Inhibition and Medicinal Chemistry, 2020).

Assays:
hMAO-A = target: T1, hMAO-A (Homo sapiens, UniProt P21397); experiment: hMAO inhibition assay (Amplex Red fluorescence), hMAO-A, p-tyramine substrate; format: biochemical; conditions: recombinant hMAO-A
T1 sequence (P21397 1-527): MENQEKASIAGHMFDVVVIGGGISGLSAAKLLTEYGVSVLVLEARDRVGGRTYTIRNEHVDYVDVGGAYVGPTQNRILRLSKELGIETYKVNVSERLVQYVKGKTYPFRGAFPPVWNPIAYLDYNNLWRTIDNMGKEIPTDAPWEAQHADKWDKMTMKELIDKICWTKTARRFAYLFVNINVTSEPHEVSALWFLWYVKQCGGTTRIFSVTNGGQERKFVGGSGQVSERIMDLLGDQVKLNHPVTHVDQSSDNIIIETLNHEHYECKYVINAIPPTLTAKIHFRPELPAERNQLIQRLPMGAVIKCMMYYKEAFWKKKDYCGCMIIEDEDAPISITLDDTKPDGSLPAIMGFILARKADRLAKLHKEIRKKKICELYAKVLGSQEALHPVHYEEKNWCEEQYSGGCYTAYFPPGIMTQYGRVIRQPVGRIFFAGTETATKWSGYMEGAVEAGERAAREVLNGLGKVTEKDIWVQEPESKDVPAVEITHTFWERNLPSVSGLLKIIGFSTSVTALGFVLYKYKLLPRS
Protocol: The hMAO inhibition assay was performed as previously described. Adequate amounts of recombinant hMAO-A/B were acquired and adjusted to 12.5 µg/mL or 75 µg/mL for hMAO-A or hMAO-B, respectively, with sodium phosphate buffer (50 mM, pH 7.4). The test compounds were dissolved in DMSO as stock solutions (10 mM) and diluted with sodium phosphate buffer (50 mM, pH 7.4) to the corresponding concentrations. Then the test compounds (20 µL) and hMAO (80 µL) were incubated for 15 min at 37 °C in a flat, black-bottomed 96-well microtest plate in the dark. The reaction was initiated by adding Amplex Red reagent (200 µM, final concentration), horseradish peroxidase (2 U/mL, final concentration), and 2 mM p-tyramine for hMAO-A or 2 mM benzylamine (final concetration) for hMAO-B and incubated at 37 °C for 20 min. Activity was quantified in a multi detection microplate fluorescence reader (SpectraMax M5, Molecular Devices, USA) based on the fluorescence generated (excitation, 545 nm; emission, 590 nm). The specific fluorescence emission was calculated after subtraction of the background activity. The background activity was determined from wells containing all components except the hMAO isoforms, which were replaced by a sodium phosphate buffer solution. The percentage inhibition was calculated by the following expression: (1 – IFi/IFc) × 100, in which IFi and IFc are the fluorescence intensities obtained for hMAO in the presence and absence of inhibitors after subtracting the respective background. […]

hMAO-B [1] = target: T2, hMAO-B (Homo sapiens, UniProt P27338); experiment: hMAO inhibition assay (Amplex Red fluorescence), hMAO-B, benzylamine substrate; format: biochemical; conditions: for Selectivity Index (SI): SI = IC50 (hMAO-A)/IC50 (hMAO-B); for fold higher inhibitory potency than 4: from IC50, versus compound 4; for IC50: recombinant hMAO-B, read-out: hMAO-B IC50; for inhibition at 1 µM: tested concentration 1 µM
T2 sequence (P27338 1-520): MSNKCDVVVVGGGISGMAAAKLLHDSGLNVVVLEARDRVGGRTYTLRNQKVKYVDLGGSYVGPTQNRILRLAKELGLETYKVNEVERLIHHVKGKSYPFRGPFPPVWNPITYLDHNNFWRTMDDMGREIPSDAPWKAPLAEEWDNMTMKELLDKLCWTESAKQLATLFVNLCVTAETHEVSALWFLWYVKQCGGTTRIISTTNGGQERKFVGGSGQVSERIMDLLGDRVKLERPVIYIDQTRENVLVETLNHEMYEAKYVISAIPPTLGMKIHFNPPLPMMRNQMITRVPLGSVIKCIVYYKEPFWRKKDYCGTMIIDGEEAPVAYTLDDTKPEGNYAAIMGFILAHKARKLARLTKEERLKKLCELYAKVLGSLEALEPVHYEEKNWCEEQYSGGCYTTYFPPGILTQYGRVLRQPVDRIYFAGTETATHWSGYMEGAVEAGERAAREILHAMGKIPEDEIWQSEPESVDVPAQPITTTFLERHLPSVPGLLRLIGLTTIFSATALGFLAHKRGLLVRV
Protocol: The hMAO inhibition assay was performed as previously described. […] The test compounds were dissolved in DMSO as stock solutions (10 mM) and diluted with sodium phosphate buffer (50 mM, pH 7.4) to the corresponding concentrations. […] The specific fluorescence emission was calculated after subtraction of the background activity. The background activity was determined from wells containing all components except the hMAO isoforms, which were replaced by a sodium phosphate buffer solution. The percentage inhibition was calculated by the following expression: (1 – IFi/IFc) × 100, in which IFi and IFc are the fluorescence intensities obtained for hMAO in the presence and absence of inhibitors after subtracting the respective background.

hMAO-B [2] = target: T2, hMAO-B; experiment: Enzyme kinetic study (Lineweaver–Burk plots); format: biochemical; conditions: benzylamine 1, 2, 4 and 8 mM
Protocol: To evaluate the mode of MAO-B inhibition, the representative compound was evaluated in substrate-dependent kinetic experiments performed as previously described. Sets of Lineweaver–Burk plots were generated. The reciprocal MAO-B activity was plotted against the reciprocal substrate concentration. […] The enzymatic reactions and measurements were performed using human MAO-B assay conditions as described above for the determination of IC50 values.

hMAO-B [3] = target: T2, hMAO-B; experiment: Reversibility study: time-dependent inhibition of hMAO-B; format: biochemical; conditions: for IC80: compounds used at the concentration of their IC80; for time after which the residual activity of hMAO-B began to increase: inhibitor at IC80; for reversibility of hMAO-B inhibition: inhibitor at IC80, activity followed for 120 min
Protocol: Control experiments without inhibitors were run simultaneously. The enzymatic activity was determined as described above. The percentage of enzyme activity was plotted against the incubation time to determine time-dependent enzyme inhibition.

BV2 microglia cells = experiment: MTT assay, cytotoxicity; format: cell-based; conditions: 5 and 25 µM for 24 h
Protocol: The 3–(4, 5-dimethylthiazol-2-yl)-2,5-diphenyltetrazolium (MTT) assay was performed as previously described. BV2 Cells were plated at 5000 cells per well and allowed to grow at 37 °C overnight. Then the cells were treated with various concentrations of the tested compounds for 24 h at 37 °C in a humidified atmosphere with 5% CO2, 0.5% DMSO acted as the vehicle control. The cell culture medium was then removed, followed by the addition of fresh cell culture medium containing 5.0 g/L MTT (20 µL/per well) and incubation at 37 °C in a humidified, 5% CO2 atmosphere for 4 h. After this incubation period, the cell culture medium was removed and the formed formazan crystals dissolved in 100% DMSO. The absorbance was measured at 570 nm in a multi-well plate reader. The results are expressed as % relative cell viability compared to DMSO vehicle control.

Row | Compound | IC50 (hMAO-A) | Selectivity Index (SI) (hMAO-B [1]) | fold higher inhibitory potency than 4 (hMAO-B [1]) | IC50 (hMAO-B [1]) | inhibition at 1 µM (hMAO-B [1]) | mode of hMAO-B inhibition (hMAO-B [2]) | IC80 (hMAO-B [3]) | time after which the residual activity of hMAO-B began to increase (hMAO-B [3]) | reversibility of hMAO-B inhibition (hMAO-B [3]) | Cell viability of BV2 cells (BV2 microglia cells) | melting point
1 | O=C(/C=C/c1ccc2c(c1)OCCO2)c1cccc(Br)c1 [Compound 16, (E)-1-(3-bromophenyl)-3-(2,3-dihydrobenzo[b][1,4]dioxin-6-yl)prop-2-en-1-one] | > 40000 nM | >727 | 1.7–4 fold | 55 ± 2 nM | 93.3% | competitive | 280 nM | 20 min | reversible | no considerable decrease in cellular viability | 119.3 to 120.4 °C
2 | O=C(/C=C/c1ccc2c(c1)OCCO2)c1cccc(Cl)c1 [Compound 17, (E)-1-(3-chlorophenyl)-3-(2,3-dihydrobenzo[b][1,4]dioxin-6-yl)prop-2-en-1-one] | > 40000 nM | >702 | 1.7–4 fold | 57 ± 4 nM | 93.4% | competitive | 280 nM | 20 min | reversible | no considerable decrease in cellular viability | 125.5 to 127 °C
